Measured values reported in patent US8129398B2 (priority 2008, dated 2012).
pIC50: −log10 of the molar value.

The compounds below were run against T1, HIV-integrase (Human immunodeficiency virus type 1 group M subtype B, UniProt P12497) (assay: HIV-Integrase Inhibition Activity (SPA bead integration assay with P33 labeled target DNA)). Conditions: recombinant integrase, class symbols; read-out: in vitro activity.
T1 construct: Recombinant integrase (0.26 ng) was incubated with the beads
Assay type: biochemical
How it was run: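 Biotinylated substrate DNA on streptavidin SPA beads loaded with recombinant integrase (90 min, 37° C), washed, then inhibitor plus 0.1 fmol P33-labeled target DNA added. Reaction stopped with 10 mM EDTA; integration measured as CPM by scintillation, giving IC50 ranks.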

Row | Compound | pIC50
1 | Cc1cc(C(=O)N(C)C23CCC(CC2)Cn2c3nc(C(=O)NCc3ccc(F)cc3)c(O)c2=O)no1 [Example 154, N-(4-Fluorobenzyl)-3-hydroxy-10-(methyl((5-methyl-3-isoxazolyl)carbonyl)amino)-4-oxo-4,6,7,8,9,10-hexahydro-7,10-ethanopyrimido[1,2-a]azepine-2-carboxamide] | > 8.00
2 | CN(C12CCC(CC1)Cn1c2nc(C(=O)NCc2ccc(F)cc2)c(O)c1=O)S(C)(=O)=O [Example 155, N-(4-Fluorobenzyl)-3-hydroxy-10-(methyl(methylsulfonyl)amino)-4-oxo-4,6,7,8,9,10-hexahydro-7,10-ethanopyrimido[1,2-a]azepine-2-carboxamide] | > 8.00
3 | Cc1cc(CNC(=O)c2nc3n(c(=O)c2O)CC2CCC3(N(C)C(=O)C(=O)N(C)C)CC2)ccc1F [Example 156, N-(2-((4-Fluoro-3-methylbenzyl)carbamoyl)-3-hydroxy-4-oxo-6,7,8,9-tetrahydro-7,10-ethanopyrimido[1,2-a]azepin-10(4H)-yl)-N,N′,N′-trimethylethanediamide] | > 8.00
4 | CN(C)C(=O)C(=O)N(C)C12CCC(CC1)Cn1c2nc(C(=O)NCc2ccc(F)cc2)c(O)c1=O [Example 157, N-(2-((4-Fluorobenzyl)carbamoyl)-3-hydroxy-4-oxo-6,7,8,9-tetrahydro-7,10-ethanopyrimido[1,2-a]azepin-10(4H)-yl)-N,N′,N′-trimethylethanediamide] | > 8.00
5 | CN(C)C(=O)C(=O)N(C)C12CCC(CC1)Cn1c2nc(C(=O)NCc2ccc(F)c(Cl)c2)c(O)c1=O [Example 158, N-(2-((3-Chloro-4-fluorobenzyl)carbamoyl)-3-hydroxy-4-oxo-6,7,8,9-tetrahydro-7,10-ethanopyrimido[1,2-a]azepin-10(4H)-yl)-N,N′,N′-trimethylethanediamide] | > 8.00
6 | CN(C)C(=O)C(=O)N(C)C12CCC(CC1)Cn1c2nc(C(=O)NCc2ccc(F)c(F)c2)c(O)c1=O [Example 159, N-(2-((3,4-Difluorobenzyl)carbamoyl)-3-hydroxy-4-oxo-6,7,8,9-tetrahydro-7,10-ethanopyrimido[1,2-a]azepin-10(4H)-yl)-N,N′,N′-trimethylethanediamide] | > 8.00
7 | COc1cc(CNC(=O)c2nc3n(c(=O)c2O)CC2CCC3(N(C)C(=O)C(=O)N(C)C)CC2)ccc1F [Example 160, N-(2-((4-Fluoro-3-methoxybenzyl)carbamoyl)-3-hydroxy-4-oxo-6,7,8,9-tetrahydro-7,10-ethanopyrimido[1,2-a]azepin-10(4H)-yl)-N,N′,N′-trimethylethanediamide] | > 8.00
8 | CN(C)C(=O)C(=O)N(C)C12CCC(CC1)Cn1c2nc(C(=O)NCc2ccc3c(c2)OCO3)c(O)c1=O [Example 161, N-(2-((1,3-Benzodioxol-5-ylmethyl)carbamoyl)-3-hydroxy-4-oxo-6,7,8,9-tetrahydro-7,10-ethanopyrimido[1,2-a]azepin-10(4H)-yl)-N,N′,N′-trimethylethanediamide] | > 8.00
9 | Cc1c(F)cc(Br)c(CNC(=O)c2nc3n(c(=O)c2O)CC2CCC3(N(C)C(=O)C(=O)N(C)C)CC2)c1Br [Example 162, N-(2-((2,6-Dibromo-4-fluoro-3-methylbenzyl)carbamoyl)-3-hydroxy-4-oxo-6,7,8,9-tetrahydro-7,10-ethanopyrimido[1,2-a]azepin-10(4H)-yl)-N,N′,N′-trimethylethanediamide] | > 8.00
10 | CN(C(=O)C(=O)N1CC[C@@H](F)C1)C12CCC(CC1)Cn1c2nc(C(=O)NCc2ccc(F)cc2)c(O)c1=O [Example 163, N-(4-Fluorobenzyl)-10-((((3R)-3-fluoro-1-pyrrolidinyl)(oxo)acetyl)(methyl)amino)-3-hydroxy-4-oxo-4,6,7,8,9,10-hexahydro-7,10-ethanopyrimido[1,2-a]azepine-2-carboxamide] | > 8.00
11 | Cc1cc(CNC(=O)c2nc3n(c(=O)c2O)CC2CCC3(N(C)C(=O)C(=O)N3CC[C@@H](F)C3)CC2)ccc1F [Example 164, N-(4-Fluoro-3-methylbenzyl)-10-((((3R)-3-fluoro-1-pyrrolidinyl)(oxo)acetyl)(methyl)amino)-3-hydroxy-4-oxo-4,6,7,8,9,10-hexahydro-7,10-ethanopyrimido[1,2-a]azepine-2-carboxamide] | > 8.00
12 | CN(CC1CCCO1)C(=O)C(=O)N(C)C12CCC(CC1)Cn1c2nc(C(=O)NCc2ccc(F)cc2)c(O)c1=O (stereo not shown) [Example 165, N-(2-((4-Fluorobenzyl)carbamoyl)-3-hydroxy-4-oxo-6,7,8,9-tetrahydro-7,10-ethanopyrimido[1,2-a]azepin-10(4H)-yl)-N,N′-dimethyl-N′-(tetrahydro-2-furanylmethyl)ethanediamide] | > 8.00
13 | Cc1cc(CNC(=O)c2nc3n(c(=O)c2O)CC2CCC3(N(C)C(=O)C(=O)N(C)CC3CCCO3)CC2)ccc1F (stereo not shown) [Example 166, N-(2-((4-Fluoro-3-methylbenzyl)carbamoyl)-3-hydroxy-4-oxo-6,7,8,9-tetrahydro-7,10-ethanopyrimido[1,2-a]azepin-10(4H)-yl)-N,N′-dimethyl-N′-(tetrahydro-2-furanylmethyl)ethanediamide] | > 8.00
14 | COCCN(C)C(=O)C(=O)N(C)C12CCC(CC1)Cn1c2nc(C(=O)NCc2ccc(F)cc2)c(O)c1=O [Example 167, N-(2-((4-Fluorobenzyl)carbamoyl)-3-hydroxy-4-oxo-6,7,8,9-tetrahydro-7,10-ethanopyrimido[1,2-a]azepin-10(4H)-yl)-N′-(2-methoxyethyl)-N,N′-dimethylethanediamide] | > 8.00
15 | COCCN(C)C(=O)C(=O)N(C)C12CCC(CC1)Cn1c2nc(C(=O)NCc2ccc(F)c(C)c2)c(O)c1=O [Example 168, N-(2-((4-Fluoro-3-methylbenzyl)carbamoyl)-3-hydroxy-4-oxo-6,7,8,9-tetrahydro-7,10-ethanopyrimido[1,2-a]azepin-10(4H)-yl)-N′-(2-methoxyethyl)-N,N′-dimethylethanediamide] | > 8.00
16 | Cc1nn(C)cc1CN(C)C(=O)C(=O)N(C)C12CCC(CC1)Cn1c2nc(C(=O)NCc2ccc(F)cc2)c(O)c1=O [Example 169, N-((1,3-Dimethyl-1H-pyrazol-4-yl)methyl)-N′-(2-((4-fluorobenzyl)carbamoyl)-3-hydroxy-4-oxo-6,7,8,9-tetrahydro-7,10-ethanopyrimido[1,2-a]azepin-10(4H)-yl)-N,N′-dimethylethanediamide] | > 8.00
17 | Cc1cc(CNC(=O)c2nc3n(c(=O)c2O)CC2CCC3(N(C)C(=O)C(=O)N(C)Cc3cn(C)nc3C)CC2)ccc1F [Example 170, N-((1,3-Dimethyl-1H-pyrazol-4-yl)methyl)-N′-(2-((4-fluoro-3-methylbenzyl)carbamoyl)-3-hydroxy-4-oxo-6,7,8,9-tetrahydro-7,10-ethanopyrimido[1,2-a]azepin-10(4H)-yl)-N,N′-dimethylethanediamide] | > 8.00
18 | Cc1c(CN(C)C(=O)C(=O)N(C)C23CCC(CC2)Cn2c3nc(C(=O)NCc3ccc(F)cc3)c(O)c2=O)cnn1C [Example 171, N-((1,5-Dimethyl-1H-pyrazol-4-yl)methyl)-N′-(2-((4-fluorobenzyl)carbamoyl)-3-hydroxy-4-oxo-6,7,8,9-tetrahydro-7,10-ethanopyrimido[1,2-a]azepin-10(4H)-yl)-N,N′-dimethylethanediamide] | > 8.00
19 | Cc1cc(CNC(=O)c2nc3n(c(=O)c2O)CC2CCC3(N(C)C(=O)C(=O)N(C)Cc3cnn(C)c3C)CC2)ccc1F [Example 172, N-((1,5-Dimethyl-1H-pyrazol-4-yl)methyl)-N′-(2-((4-fluoro-3-methylbenzyl)carbamoyl)-3-hydroxy-4-oxo-6,7,8,9-tetrahydro-7,10-ethanopyrimido[1,2-a]azepin-10(4H)-yl)-N,N′-dimethylethanediamide] | > 8.00
20 | CCN(C(=O)C(=O)N(C)C)C12CCC(CC1)Cn1c2nc(C(=O)NCc2ccc(F)cc2)c(O)c1=O [Example 173, N-Ethyl-N-(2-((4-fluorobenzyl)carbamoyl)-3-hydroxy-4-oxo-6,7,8,9-tetrahydro-7,11-ethanopyrimido[1,2-a]azepin-10(4H)-yl)-N′,N′-dimethylethanediamide] | > 8.00
21 | CN(C)C(=O)C(=O)N(CCO)C12CCC(CC1)Cn1c2nc(C(=O)NCc2ccc(F)cc2)c(O)c1=O [Example 175, N-(2-((4-Fluorobenzyl)carbamoyl)-3-hydroxy-4-oxo-6,7,8,9-tetrahydro-7,10-ethanopyrimido[1,2-a]azepin-10(4H)-yl)-N-(2-hydroxyethyl)-N′,N′-dimethylethanediamide] | > 8.00
22 | CN(C)C(=O)C(=O)OCCNC12CCC(CC1)Cn1c2nc(C(=O)NCc2ccc(F)cc2)c(O)c1=O [Example 176] | 7.00 to 8.00
23 | CN(C)C(=O)C(=O)NC12CCC(C)(CC1)Cn1c2nc(C(=O)NCc2ccc(F)cc2)c(O)c1=O [Example 180, Ethanediamide, N′-[2-[[[(4-fluorophenyl)methyl]amino]carbonyl]-6,7,8,9-tetrahydro-3-hydroxy-7-methyl-4-oxo-7,10-ethanopyrimido[1,2-a]azepin-10(4H)-yl]-N,N-dimethyl-] | > 8.00
24 | CC1(C)[C@@H]2CC[C@@]1(C)[C@@H](NC(=O)OCc1ccccc1)c1nc(C(=O)NCc3ccc(F)cc3)c(O)c(=O)n1C2 [Example 181, Benzyl((7S,10R,11R)-2-((4-fluorobenzyl)carbamoyl)-3-hydroxy-10,12,12-trimethyl-4-oxo-6,7,8,9,10,11-hexahydro-4H-7,10-methanopyrimido[1,2-a]azocin-11-yl)carbamate] | 7.00 to 8.00
25 | CC1(C)[C@@H]2CC[C@@]1(C)[C@@H](N)c1nc(C(=O)NCc3ccc(F)cc3)c(O)c(=O)n1C2 [Example 182, (7S,10R,11R)-11-Amino-N-(4-fluorobenzyl)-3-hydroxy-10,12,12-trimethyl-4-oxo-6,7,8,9,10,11-hexahydro-4H-7,10-methanopyrimido[1,2-a]azocine-2-carboxamide] | < 7.00
